Measurements reported in patent publication US20260297129A1, “PEPTIDES AS SELECTIVE IL-23 RECEPTOR INHIBITORS” (SANOFI, priority 2023, published 2026).
Like-named read-outs stand apart in the source and are kept apart here. Numbered stars: 1 amine (or outer) side, 2 acyl side, 3 side chain; on linkers, the order of the positions; unused ones are H or OH. Bridge positions count the residues as written; N and C are the ends. Square brackets hold non-standard residues; d marks the D form. Peptide text beside a SMILES is read from it. * marks the point of attachment. Lys(Me,(CH2)4NMe(CH2)5CO) = CN(CCCCCC(=O)[*:3])CCCCN(C)CCCC[C@H](N[*:1])C(=O)[*:2]; X2 = O=C(Cc1ccc(-c2ccc(CC(=O)[*:2])cc2)cc1)[*:1]; Trp(7-Me) = Cc1cccc2c(C[C@H](N)C(=O)O)c[nH]c12; Sebacoyl = O=C(CCCCCCCCC(=O)[*:2])[*:1]; NH(CH2)9CO = O=C(CCCCCCCCCN[*:1])[*:2]; 2Nal = N[C@@H](Cc1ccc2ccccc2c1)C(=O)O; Suberoyl = O=C(CCCCCCC(=O)[*:2])[*:1]; d2Nal = N[C@H](Cc1ccc2ccccc2c1)C(=O)O; C12 diacid = O=C(O)CCCCCCCCCCC(=O)*; X1 = O=C(CCCCCCCCCCCCCN[*:1])[*:2]; 3Pal = N[C@@H](Cc1cccnc1)C(=O)O; 12Ado = NCCCCCCCCCCCC(=O)O; AEEEA = NCCOCCOCCOCC(=O)O; Aun = NCCCCCCCCCCC(=O)O; Thp = NC1(C(=O)O)CCOCC1; Me2NCH2CH2 = CN(C)CC*; Aib = CC(C)(N)C(=O)O; Aoc = NCCCCCCCC(=O)O; Sar = CNCC(=O)O

Assays:
[1] = Chemical stability (relative purity loss) of peptide compounds in buffer formulations (Table 6); type: physicochemical; settings: 2° C. and 37° C.
Method in brief: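 Compounds at 0.5 mg/mL in 50 mM HCl pH 1.2, 50 mM phosphate pH 6.5 or pH 7.4, each with acetonitrile (3:1), stored 24 hours at 2° C and 37° C. Purity measured by UHPLC-UV before and after. Stability expressed as relative purity loss.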

human IL-23R = target: T1, human IL-23R (Homo sapiens, UniProt Q5VWK5); assay: Inhibition of IL-23 binding to IL-23R as measured by ELISA (Table 8); settings: human IL23 coated 1 μg/ml; human IL-23R-Fc 0.1 μg/ml; 60 min; read-out: Human ELISA IL23/IL23R IC50
T1 sequence (Q5VWK5 24-353 limits assumed): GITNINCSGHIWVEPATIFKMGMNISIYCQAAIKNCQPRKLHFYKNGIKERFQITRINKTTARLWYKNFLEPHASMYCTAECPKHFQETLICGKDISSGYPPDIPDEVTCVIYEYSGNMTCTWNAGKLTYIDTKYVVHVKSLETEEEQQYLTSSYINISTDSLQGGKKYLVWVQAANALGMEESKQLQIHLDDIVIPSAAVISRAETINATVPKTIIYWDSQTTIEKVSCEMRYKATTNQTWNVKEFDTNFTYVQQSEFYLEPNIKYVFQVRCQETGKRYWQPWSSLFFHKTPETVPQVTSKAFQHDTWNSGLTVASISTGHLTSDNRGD
Protocol: Antagonism of compounds for human interleukin-23 receptor inhibitors, was determined by an ELISA assay.
A 384-well plate was coated with 50 μl/well of human IL23 at a final concentration of 1 μg/ml and incubated overnight at 4° C. The wells were washed 3 times with 80 μl wash buffer and blocked with 80 μl blocking buffer for 60 minutes at room temperature and washed again. 20 μl of serially diluted test peptides was added to each well and subsequently 20 μl of recombinant human IL-23R-Fc chimera at final concentration of 0.1 μg/ml. The plate was incubated for 60 minutes at room temperature. After the wells were washed, bound IL23R-Fc was detected with goat anti-hu-IgG1-HRP antibody. Signals were visualized with QUANTABLU fluorogenic peroxidase substrate.

[2] = 50 mM phosphate buffer pH 6.5 + acetonitrile (3:1), read-out: Chemical stability (relative purity loss), Buffer pH 6.5
[3] = 50 mM phosphate buffer pH 7.4 + acetonitrile (3:1), read-out: Chemical stability (relative purity loss), Buffer pH 7.4
[4] = 50 mm hcl + acetonitrile, Buffer pH 1.1 (head; method: 50 mM HCl pH 1.2 + acetonitrile 3:1), read-out: Chemical stability (relative purity loss), Buffer pH 1.1

SMILES | degraded at 24 h [1, 2] | degraded at 24 h [1, 3] | degraded at 24 h [1, 4] | IC50 (human IL-23R)
CC(=O)NCCCC[C@@H]1NC(=O)[C@H](Cc2c[nH]c3c(C)cccc23)NC(=O)[C@@H](NC(C)=O)CCCCN(C)CCCCN(C)CCCC[C@@H](C(=O)N[C@@H](CC(N)=O)C(=O)N[C@@H](Cc2cccnc2)C(=O)N(C)CC(N)=O)NC(=O)C(C)(C)NC(=O)[C@@H](Cc2ccc3ccccc3c2)NC(=O)[C@H](Cc2ccc(OCCN(C)C)cc2)NC(=O)C2(CCOCC2)NC1=O [compound 13] | 0% | 0% | 3.1% | 0.41 nM
Cc1cccc2c(C[C@@H]3NC(=O)CCCCCCCCCCCNC(=O)CC[C@@H](C(=O)N[C@@H](CC(N)=O)C(=O)N[C@@H](Cc4cccnc4)C(=O)N(C)CC(N)=O)NC(=O)C(C)(C)NC(=O)[C@H](Cc4ccc5ccccc5c4)NC(=O)[C@H](Cc4ccc(OCCN(C)C)cc4)NC(=O)C4(CCOCC4)NC(=O)[C@H](CCC(N)=O)NC3=O)c[nH]c12 [compound 2] ([12Ado][Trp(7-Me)]Q[Thp]Y(Me2NCH2CH2)[2Nal][Aib]EN[3Pal][Sar]-NH2; lactam N-8) | 0% | 0.1% | 6.4% | 0.32 nM
Cc1cccc2c(C[C@@H]3NC(=O)CCCCCCCCC(=O)NCCCC[C@@H](C(=O)N[C@@H](CC(N)=O)C(=O)N[C@@H](Cc4cccnc4)C(=O)N(C)CC(N)=O)NC(=O)C(C)(C)NC(=O)[C@H](Cc4ccc5ccccc5c4)NC(=O)[C@H](Cc4ccc(OCCN(C)C)cc4)NC(=O)C4(CCOCC4)NC(=O)[C@H](CCC(N)=O)NC3=O)c[nH]c12 [compound 11] ([Trp(7-Me)]Q[Thp]Y(Me2NCH2CH2)[2Nal][Aib]KN[3Pal][Sar]-NH2; linker N-7 via Sebacoyl) | 0% | 0% | 7.9% | 0.62 nM
Cc1cccc2c(C[C@@H]3NC(=O)CCCCCCCNC(=O)CC[C@@H](C(=O)N[C@@H](CC(N)=O)C(=O)N[C@@H](Cc4cccnc4)C(=O)N(C)CC(N)=O)NC(=O)C(C)(C)NC(=O)[C@H](Cc4ccc5ccccc5c4)NC(=O)[C@H](Cc4ccc(OCCN(C)C)cc4)NC(=O)C4(CCOCC4)NC(=O)[C@H](CC(C)C)NC3=O)c[nH]c12 [compound 9] ([Aoc][Trp(7-Me)]L[Thp]Y(Me2NCH2CH2)[2Nal][Aib]EN[3Pal][Sar]-NH2; lactam N-8) | 0% | 0% | 5.6% | 0.94 nM
Cc1cccc2c(C[C@@H]3NC(=O)CCCCCCCCCNC(=O)CC[C@@H](C(=O)N[C@@H](CC(N)=O)C(=O)N[C@@H](Cc4cccnc4)C(=O)N(C)CC(N)=O)NC(=O)C(C)(C)NC(=O)[C@H](Cc4ccc5ccccc5c4)NC(=O)[C@H](Cc4ccc(OCCN(C)C)cc4)NC(=O)C4(CCOCC4)NC(=O)[C@H](CC(C)C)NC3=O)c[nH]c12 [compound 8] ([NH(CH2)9CO][Trp(7-Me)]L[Thp]Y(Me2NCH2CH2)[2Nal][Aib]EN[3Pal][Sar]-NH2; lactam N-8) | 0% | 0% | 6.2% | 1.69 nM
Cc1cccc2c(C[C@@H]3NC(=O)CCCCCCC(=O)NCCCC[C@@H](C(=O)N[C@@H](CC(N)=O)C(=O)N[C@@H](Cc4cccnc4)C(=O)N(C)CC(N)=O)NC(=O)C(C)(C)NC(=O)[C@H](Cc4ccc5ccccc5c4)NC(=O)[C@H](Cc4ccc(OCCN(C)C)cc4)NC(=O)C4(CCOCC4)NC(=O)[C@H](CCC(N)=O)NC3=O)c[nH]c12 [compound 12] ([Trp(7-Me)]Q[Thp]Y(Me2NCH2CH2)[2Nal][Aib]KN[3Pal][Sar]-NH2; linker N-7 via Suberoyl) | 0% | 0% | 12% | 0.61 nM
Cc1cccc2c(C[C@@H]3NC(=O)COCCOCCOCCNC(=O)CC[C@@H](C(=O)N[C@@H](CC(N)=O)C(=O)N[C@@H](Cc4cccnc4)C(=O)N(C)CC(N)=O)NC(=O)C(C)(C)NC(=O)[C@H](Cc4ccc5ccccc5c4)NC(=O)[C@H](Cc4ccc(OCCN(C)C)cc4)NC(=O)C4(CCOCC4)NC(=O)[C@H](CCC(N)=O)NC3=O)c[nH]c12 [compound 14] ([AEEEA][Trp(7-Me)]Q[Thp]Y(Me2NCH2CH2)[2Nal][Aib]EN[3Pal][Sar]-NH2; lactam N-8) | 0% | 0% | 8.6% | 0.46 nM
CC(=O)NCCCC[C@@H]1NC(=O)[C@H](Cc2c[nH]c3c(C)cccc23)NC(=O)CCCCCN(C)CCCCN(C)CCCC[C@@H](C(=O)N[C@@H](CC(N)=O)C(=O)N[C@@H](Cc2cccnc2)C(=O)N(C)CC(N)=O)NC(=O)C(C)(C)NC(=O)[C@H](Cc2ccc3ccccc3c2)NC(=O)[C@H](Cc2ccc(OCCN(C)C)cc2)NC(=O)C2(CCOCC2)NC1=O [compound 18] ([Trp(7-Me)]K(Ac)[Thp]Y(Me2NCH2CH2)[2Nal][Aib][Lys(Me,(CH2)4NMe(CH2)5CO)]N[3Pal][Sar]-NH2; lactam N-7) | 0% | 0% | 3.8% | 0.68 nM
Cc1cccc2c(C[C@@H]3NC(=O)Cc4ccc(cc4)-c4ccc(cc4)CC(=O)NCCCC[C@@H](C(=O)N[C@@H](CC(N)=O)C(=O)N[C@@H](Cc4cccnc4)C(=O)N(C)CC(N)=O)NC(=O)C(C)(C)NC(=O)[C@H](Cc4ccc5ccccc5c4)NC(=O)[C@H](Cc4ccc(OCCN(C)C)cc4)NC(=O)C4(CCOCC4)NC(=O)[C@H](CCC(N)=O)NC3=O)c[nH]c12 [compound 15] ([Trp(7-Me)]Q[Thp]Y(Me2NCH2CH2)[2Nal][Aib]KN[3Pal][Sar]-NH2; linker N-7 via X2) | 0% | 0.4% | 7.1% | 0.63 nM
Cc1cccc2c(C[C@@H]3NC(=O)CCCCCCCCCCCCCNC(=O)CC[C@@H](C(=O)N[C@@H](CC(N)=O)C(=O)N[C@@H](Cc4cccnc4)C(=O)N(C)CC(N)=O)NC(=O)C(C)(C)NC(=O)[C@H](Cc4ccc5ccccc5c4)NC(=O)[C@H](Cc4ccc(OCCN(C)C)cc4)NC(=O)C4(CCOCC4)NC(=O)[C@H](CCC(N)=O)NC3=O)c[nH]c12 [compound 1] ([X1][Trp(7-Me)]Q[Thp]Y(Me2NCH2CH2)[2Nal][Aib]EN[3Pal][Sar]-NH2; lactam N-8) | 0% | 0% | 6.2% | 0.3 nM
Cc1cccc2c(C[C@@H]3NC(=O)CCCCCCCCCCNC(=O)CC[C@@H](C(=O)N[C@@H](CC(N)=O)C(=O)N[C@@H](Cc4cccnc4)C(=O)N(C)CC(N)=O)NC(=O)C(C)(C)NC(=O)[C@H](Cc4ccc5ccccc5c4)NC(=O)[C@H](Cc4ccc(OCCN(C)C)cc4)NC(=O)C4(CCOCC4)NC(=O)[C@H](CC(C)C)NC3=O)c[nH]c12 [compound 7] ([Aun][Trp(7-Me)]L[Thp]Y(Me2NCH2CH2)[2Nal][Aib]EN[3Pal][Sar]-NH2; lactam N-8) | 0% | 0.5% | 3.9% | 2.41 nM
Cc1cccc2c(C[C@@H]3NC(=O)CCCCCCCCCCNC(=O)CC[C@@H](C(=O)N[C@@H](CC(N)=O)C(=O)N[C@@H](Cc4cccnc4)C(=O)N(C)CC(N)=O)NC(=O)C(C)(C)NC(=O)[C@@H](Cc4ccc5ccccc5c4)NC(=O)[C@H](Cc4ccc(OCCN(C)C)cc4)NC(=O)C4(CCOCC4)NC(=O)[C@H](CCC(N)=O)NC3=O)c[nH]c12 [compound 4] ([Aun][Trp(7-Me)]Q[Thp]Y(Me2NCH2CH2)[d2Nal][Aib]EN[3Pal][Sar]-NH2; lactam N-8) | 0% | 0% | 6.3% | 0.62 nM
Cc1cccc2c(C[C@@H]3NC(=O)CCCCCCCCCCC(=O)NCCCC[C@@H](C(=O)N[C@@H](CC(N)=O)C(=O)N[C@@H](Cc4cccnc4)C(=O)N(C)CC(N)=O)NC(=O)C(C)(C)NC(=O)[C@H](Cc4ccc5ccccc5c4)NC(=O)[C@H](Cc4ccc(OCCN(C)C)cc4)NC(=O)C4(CCOCC4)NC(=O)[C@H](CCC(N)=O)NC3=O)c[nH]c12 [compound 10] ([Trp(7-Me)]Q[Thp]Y(Me2NCH2CH2)[2Nal][Aib]KN[3Pal][Sar]-NH2; linker N-7 via C12 diacid) | 0% | 0% | 6.1% | 0.55 nM
